Assay [1] has as its system anti-ghrelin antibody. Briefly: Time course of I^125-ghrelin binding to anti-ghrelin antibody-conjugated bead. Conditions: room temp (21° C.), 0-249 min, FIG. 3. The procedure: A particular embodiment of the immunoassay method for dissociable capture of radiolabeled ghrelin peptide by solid phase linked antibody can be performed as follows:
1. Combine 100 ul of I^125-ghrelin (specific activity 3.15 p mole/ml) prepared in accordance with Example 1.3 (Example 1 step 3) to each of eight aliquots of 50 μL antibody-conjugated beads and to each of two aliquots of 50 μL glycine-conjugated beads prepared in accordance with Example 2B suspended in stock solution (0.01 M Tris (pH 7.4), 0.1% NaN3, 0.1% w/v bovine serum albumin (BSA), 0.15M NaCl, and 0.001M EDTA.
2. Incubate antibody-conjugated beads at room temp (21° C.) for 0, 5, 10, 15, 30, 60, 120, and 249 min.
3. To each incubated mixture of antibody-conjugated beads and I^125-ghrelin add 1.5 ml RIA buffer (150 mM NaCl, 100 mM sodium phosphate, 1% BSA and 1% Triton X-100), mix, and centrifuge for 5 minutes at 17,000× g. Aspirate off the supernatant. 4. Wash once with 1 ml RIA buffer. Aspirate off the supernatant
5. Measure and record counts per minute for each assay tube.
The results shown are the means of duplicates. The counts from gamma counter represent the specific binding by anti-ghrelin antibody. The binding curve was generated using a non-linear least square fitting program in GraphPad Prism (version 2.01).

The target in the next assay is insulysin (IDE) (Homo sapiens, UniProt P14735). Briefly: Peptide degradation by insulysin (IDE), read out by bead-based RIA. Format: biochemical. Conditions: for degradation kinetics with insulysin (IDE): 37° C., 0-15 min, means of duplicates, FIGS. 10 and 11. An excerpt:
Now referring primarily to FIGS. 10, 11 and 12 and Example 12, an embodiment of the inventive immunoassay system (1) allows for the coincident measurement of the degradation of a plurality of target particles (7) contained in the same immunoassay sample (6). […] Similarly, now referring to FIG. 11, the inventive immunoassay method can be used to determine the decreased concentration of amylin in an immunoassay sample (6) upon degradation by IDE.
1. Prepare separately solutions of 200 pg/mL of human glucagon (adjust with I^125-glucagon) and 40 pg/mL of human amylin (adjust with I^125-amylin) each in a total volume of 2 mL.
2. Prepare a digestion solution of insulysin (IDE) 6.2 μg in 3.1 mL of 0.15M NaCl, 25 mM Tris, pH7.5. Aliquote 0.4 mL to a tube for total of 12 tubes of digestion solution.
3. Add to the digestion solution with above 0.4 mL of human glucagon or amylin solution.
4. Incubate at 37° C. for a time interval at 15, 10, 7, 5, 3, 1 min and a tube without the incubation.
5. At the indicated time, add 40 μL protease inhibitor (bacitracin 2 mg/ml final concentration) and 300 μL of 10 mM ammonium chloride to stop the reaction.
6. Transfer 50 μL antibody conjugated bead prepared in accordance with Example 2B, 120 μL RIA buffer, 50 μl aprotinin and 80 μL of digested I^125-labeled peptide solution to 1 mL conical tube and incubate with agitation for 30 min.
7. Spin 5 min at 16000×g to pellet the beads and discard supernatant.
8. Add 1 mL of RIA buffer and centrifuge at 1700×g for 5 min.
9. Remove the supernatant and count the CPM of the pellet by gamma counter.

Assay [2] concerns the target anti-ghrelin antibody. Briefly: 60 μl small volume competitive radiolabeled ghrelin binding by bead-linked antibody (bead-based RIA). Conditions: competition with I^125-ghrelin, total volume about 60 μl; stated as comparable to conventional RIA of Example 1. Here is the method: A particular embodiment of the immunoassay method for competitive dissociable capture of radiolabeled ghrelin peptide by solid phase linked antibody to determine ghrelin peptide concentration in a 60 μl small volume immunoassay sample can be performed as follows:
1. Combine 25 μl of antibody immobilized beads in stock solution prepared in accordance with Example 2B to about 25 μl human plasma or 10 μl-25 μl standard solution.
2. Mix resulting combination and incubate 6 hours at room temperature.
3. Add 10 μl 125I-peptide. Mix and incubate overnight (16-18 hrs.) at 4° C. 4. Add RIA buffer. Mix and centrifuge for 5 minutes at 1,700 g. Aspirate off the supernatant (except total count tubes). 5. Wash once with 1 ml RIA buffer. Aspirate off the supernatant (except total count tubes).
6. Measure and record counts per minute for each assay tube.
The plasma concentration was interpolated from standard curves and indicate about 18.7 pg in 150 μl solution. The amounts of isotope labeled-ligands applied (as indicated in total counts tubes) was twice that of the conventional RIA as described in Example 1. […]

Assay [3] addresses anti-ghrelin antibody. Briefly: 150 μl small volume competitive radiolabeled ghrelin binding by bead-linked antibody (bead-based RIA). Conditions: competition with I^125-ghrelin, total volume about 150 μl; stated as comparable to conventional RIA of Example 1. The procedure:
A particular embodiment of the immunoassay method for competitive dissociable capture of radiolabeled ghrelin peptide by solid phase linked antibody to determine ghrelin peptide concentration in a 150 μl small volume immunoassay sample can be performed as follows:
1. Combine 25 μl of antibody conjugated beads in stock solution prepared in accordance with Example 2B to 50 μl human plasma or 50 μl standard solution.
2. Mix the resulting combination and incubate 6 hrs at 4° C.
3. Add 25 μl of I^125-ghrelin prepared in accordance with Example 1.3 and 50 μl RIA buffer.
4. Incubate 16-18 hrs. at 4° C.
5. Add 1.5 ml RIA buffer to incubated mixture and centrifuge for 5 minutes at 17,000× g. Aspirate off the supernatant (except total counts tubes). 6. Wash once with 1 ml RIA buffer. Aspirate off the supernatant (except total counts tubes).
7. Measure and record counts per minute for each assay tube.
The plasma concentration was interpolated from standard curves and indicate about 18.7 pg in 150 ul solution. The amounts of isotope labeled-ligands applied (as indicated in total counts tubes) was twice that of the conventional RIA described in Example 1. […] The total assay time was about 24 hours for this embodiment of the inventive immunoassay method. […]

No end group written: not given here.

This is an account of results in US20080124813A1, “Bead-based radioimmunoassay” (Phoenix Pharmaceuticals, Inc., priority 2006, published 2008).

Turning to “I^125-ghrelin: I^125-labeled ghrelin peptide used as labeled particle (GSSFLSPEHQRVQQRKESKKPPAKLQPR; ends and bridges not checked; also: 125I label, position not given here; UniProt Q9UBU3 24-51, looked up)”, in the assay on anti-ghrelin antibody [1], the “time to saturation binding to antibody-conjugated beads” value is listed as “two hour saturation binding”.

With glucagon, the “degradation kinetics with insulysin (IDE)” value in the assay with insulysin (IDE) is “pseudo-first order degradation”. The “concentration in immunoassay sample upon degradation with insulysin” value with insulysin (IDE) (increasing duration of incubation with IDE at 37° C., FIG. 10) was “decreases”.

As to “amylin (KCNTATCATQRLANFLVHSSNNFGAILSSTNVGSNTY; not fully specified (C-terminus, bridges); cysteine pairing not given here; also: 125I label, position not given here; UniProt P10997 34-70, looked up) [human amylin, human amylin, adjusted with I^125-amylin, digested with insulysin]”, the “degradation kinetics with insulysin (IDE)” value with insulysin (IDE) was “pseudo-first order degradation”.

Regarding “ghrelin (GSSFLSPEHQRVQQRKESKKPPAKLQPR; ends and bridges not checked; UniProt Q9UBU3 24-51, looked up) [human peptide ghrelin, 28 residues in the naturally occurring form; target particle of the immunoassay]”, the results for the IC50 entry at anti-ghrelin antibody [2] and at anti-ghrelin antibody [3] were “around 400 pg/ml” and “about 400 pg/ml”, respectively.
